The values below come from patent publication US20030013637A1, “Novel anti-autoimmune composition by inhibition of GRF action” (priority 2001, published 2003).

For this assay, the system named is EAE-induced PLSJLF1/J mice. In words: Effect of GRF antagonist administration on experimental autoimmune encephalomyelitis (EAE) induced by rabbit MBP immunization and pertussis toxin. It counts as in vivo. The method, then:
In order to investigate the affect of the administration of GRF antagonist on the onset of autoimmune disease, studies were conducted using experimental autoimmune encephalomyelitis (EAE), which is an experimental animal model of human multiple sclerosis.
Wild mice (PLSJLF1/J) (females purchased from The Jackson Laboratory) were used in the experiment. The mice were purchased at five weeks of age, and were reared under artificial lighting from 8:00 am to 8:00 pm every day throughout the experiment. The animals were allowed free access to water and solid food (CE-2; Japan CLEA).
First, these mice (total ten animals) were sensitized by subcutaneous administration in the femoral area of 100 μL of an emulsion in a 1:1 mixture of complete Freund's adjuvant (CFA) (Difco Co.) to 2 mg/mL rabbit myelin basic protein (MBP) (manufactured by Sigma Co.) dissolved in physiological saline (manufactured by Otsuka Pharmaceutical Co. Ltd.). Pertussis toxin (manufactured by List Biological Laboratories) (200 ng) dissolved in physiological saline (manufactured by Otsuka Pharmaceutical Co. Ltd.) was intra-abdominally administered immediately after and two days after sensitization. In this manner, experimental autoimmune encephalomyelitis (EAE) was induced.
Next, GRF antagonist was administered in compliance with the following procedures. The mice (total of ten animals) that had been MBP sensitized and administered pertussis toxin were divided into two groups. One group (five animals) was subcutaneously administered in the dorsal neck region 30 μg of GRF antagonist (MZ-4-71; manufactured by the US company Calbiochem Novabiochem) per mouse once per day from the eighth to 15th day after MBP sensitization (MZ-4-71 administration group). The other group (five animals) was subcutaneously administered in the dorsal neck region an equal amount of physiological saline in the same way as a control once per day from the eighth to 15th day after MBP sensitization (saline administration group). All animals were allowed free access to food and water throughout the entire rearing period including during the aforementioned experimental period.
The body weight of each mouse was measured every day. The EAE symptoms were observed. and EAE symptom scores were recorded based on the following criteria.
0: No symptoms, 1: Paralysis of tail, 2: Mild paralysis of rear legs, 3: Moderate to severe paralysis of rear legs or mild paralysis of front legs, or both, 4: Complete paralysis of rear legs or moderate to severe paralysis of front legs, or both, 5: Paralysis of all four limbs or struggling with death, 6: Death

Regarding “[Ibu^0, D-Arg^2, Phe(4-Cl)^6, Abu^15, Nle^27]hGHRH-(1-28)Agm [MZ-4-71]”, for the setting “PLSJLF1/J mice, 30 μg per mouse s.c. once per day, day 8 to 15 after MBP sensitization, FIG. 2(A)”, the “beginning of EAE onset” value is on record as 11 post-sensitization day. Under “after remission, 30 μg per mouse s.c. once per day, day 8-15”, this substance had a beginning of flare-ups of 20 post-sensitization day. Further, the “mean EAE score” value runs as follows: (beginning post-sensitization day 17, remissions in all the mice, 30 μg per mouse s.c. once per day, day 8-15) 0; (post-sensitization day 13, 30 μg per mouse s.c. once per day, day 8-15, score scale 0-6) 0.3. Further, under “post-sensitization day 23, peak over subsequent observation period, 30 μg per mouse s.c. once per day, day 8-15”, the “peak mean EAE score” value is recorded as 2.2. The EAE onset percentage result (post-sensitization day 26, 30 μg per mouse s.c. once per day, day 8-15, FIG. 2(B)) is given as “not more than 60%”. For the same substance, the “EAE scores compared to the saline administration group” value (time course of mean values, FIG. 2(A)) is on record as “lower EAE scores”. Further, the “beginning of EAE onset compared to the saline administration group” value (time course of onset percentage, FIG. 2(B)) was “a delay in the beginning of EAE onset”.
